Article PMC4230905, “(S)-3-hydroxyacyl-CoA dehydrogenase/enoyl-CoA hydratase (FadB’) from fatty acid degradation operon of Ralstonia eutropha H16” (AMB Express, 2014)

T1: FadB' ((S)-3-hydroxyacyl-CoA dehydrogenase/enoyl-CoA hydratase, H16_A0461; FadB'Re) (Cupriavidus necator, UniProt Q0KEG0)
T1 construct: N-terminal His-tag (pCOLADuet-1::3HAD), expressed in E. coli BL21; monomer (87 kDa by gel filtration); N-terminal 3HCDH and C-terminal crotonase-like domain
T1 sequence (Q0KEG0 1-807): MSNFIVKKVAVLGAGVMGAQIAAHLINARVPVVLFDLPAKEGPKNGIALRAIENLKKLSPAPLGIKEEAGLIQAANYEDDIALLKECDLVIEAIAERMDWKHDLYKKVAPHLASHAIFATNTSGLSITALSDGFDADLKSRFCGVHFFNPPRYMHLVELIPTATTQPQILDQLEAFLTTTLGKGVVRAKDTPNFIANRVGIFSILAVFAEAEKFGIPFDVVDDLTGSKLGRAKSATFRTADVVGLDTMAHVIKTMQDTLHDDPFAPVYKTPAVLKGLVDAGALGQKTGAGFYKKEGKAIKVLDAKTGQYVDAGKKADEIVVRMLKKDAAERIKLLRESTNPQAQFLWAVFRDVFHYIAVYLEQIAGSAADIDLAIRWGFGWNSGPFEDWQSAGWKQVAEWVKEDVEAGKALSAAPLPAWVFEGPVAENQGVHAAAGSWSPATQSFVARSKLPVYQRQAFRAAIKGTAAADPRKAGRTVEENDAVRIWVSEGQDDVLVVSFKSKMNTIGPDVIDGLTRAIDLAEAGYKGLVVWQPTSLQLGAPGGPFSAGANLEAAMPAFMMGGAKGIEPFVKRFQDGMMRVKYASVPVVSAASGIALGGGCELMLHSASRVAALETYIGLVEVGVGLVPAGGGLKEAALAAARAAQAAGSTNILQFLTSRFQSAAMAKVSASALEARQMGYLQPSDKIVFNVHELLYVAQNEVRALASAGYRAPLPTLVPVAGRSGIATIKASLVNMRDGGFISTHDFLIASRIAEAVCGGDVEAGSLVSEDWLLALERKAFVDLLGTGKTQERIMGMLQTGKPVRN


Key:
[1] = molecular target: T1, FadB' ((S)-3-hydroxyacyl-CoA dehydrogenase/enoyl-CoA hydratase, H16_A0461; FadB'Re); assay: coupled assay, acetoacetyl-CoA-Mg2+ complex formation at […] nm; assay type: biochemical; settings: read-out: % inhibition at 0.1 mM (enoyl-CoA hydratase activity)
[2] = molecular target: T1, FadB' ((S)-3-hydroxyacyl-CoA dehydrogenase/enoyl-CoA hydratase, H16_A0461; FadB'Re); assay: spectrophotometric NADH oxidation at […] nm; assay type: biochemical; settings: read-out: % inhibition at 0.1 mM (3-hydroxyacyl-CoA dehydrogenase activity)
[3] = substrate: CC(=O)CC(=O)SCCNC(=O)CCNC(=O)[C@H](O)C(C)(C)COP(=O)(O)OP(=O)(O)OC[C@H]1O[C@@H](n2cnc3c(N)ncnc32)[C@H](O)[C@@H]1OP(=O)(O)O; assay: purified protein; assay type: biochemical, Cupriavidus necator; settings: 3-hydroxyacyl-CoA dehydrogenase activity (reduction direction), 0.2 mM NADH, 100 mM Tris-HCl pH 7, 30 °C, no acetyl-CoA added

Row | inhibition at 100 µM [1] | inhibition at 100 µM [2] | Molecule | Km [3]
1 | 30% | 20% | CC(C)(COP(=O)(O)OP(=O)(O)OC[C@H]1O[C@@H](n2cnc3c(N)ncnc32)[C@H](O)[C@@H]1OP(=O)(O)O)[C@@H](O)C(=O)NCCC(=O)NCCS [CoA] | –
2 | 70% | ~50% | CC(=O)SCCNC(=O)CCNC(=O)[C@H](O)C(C)(C)COP(=O)(O)OP(=O)(O)OC[C@H]1O[C@@H](n2cnc3c(N)ncnc32)[C@H](O)[C@@H]1OP(=O)(O)O [acetyl-CoA] | –
3 | ~60% | – | CCC(=O)SCCNC(=O)CCNC(=O)[C@H](O)C(C)(C)COP(=O)(O)OP(=O)(O)OC[C@H]1O[C@@H](n2cnc3c(N)ncnc32)[C@H](O)[C@@H]1OP(=O)(O)O [propionyl-CoA] | –
4 | – | – | FadB' ((S)-3-hydroxyacyl-CoA dehydrogenase/enoyl-CoA hydratase, H16_A0461; FadB'Re) (Cupriavidus necator H16) (protein, N-terminal His-tag (pCOLADuet-1::3HAD), expressed in E. coli BL21; monomer (87 kDa by gel filtration); N-terminal 3HCDH and C-terminal crotonase-like domain) MSNFIVKKVAVLGAGVMGAQIAAHLINARVPVVLFDLPAKEGPKNGIALRAIENLKKLSPAPLGIKEEAGLIQAANYEDDIALLKECDLVIEAIAERMDWKHDLYKKVAPHLASHAIFATNTSGLSITALSDGFDADLKSRFCGVHFFNPPRYMHLVELIPTATTQPQILDQLEAFLTTTLGKGVVRAKDTPNFIANRVGIFSILAVFAEAEKFGIPFDVVDDLTGSKLGRAKSATFRTADVVGLDTMAHVIKTMQDTLHDDPFAPVYKTPAVLKGLVDAGALGQKTGAGFYKKEGKAIKVLDAKTGQYVDAGKKADEIVVRMLKKDAAERIKLLRESTNPQAQFLWAVFRDVFHYIAVYLEQIAGSAADIDLAIRWGFGWNSGPFEDWQSAGWKQVAEWVKEDVEAGKALSAAPLPAWVFEGPVAENQGVHAAAGSWSPATQSFVARSKLPVYQRQAFRAAIKGTAAADPRKAGRTVEENDAVRIWVSEGQDDVLVVSFKSKMNTIGPDVIDGLTRAIDLAEAGYKGLVVWQPTSLQLGAPGGPFSAGANLEAAMPAFMMGGAKGIEPFVKRFQDGMMRVKYASVPVVSAASGIALGGGCELMLHSASRVAALETYIGLVEVGVGLVPAGGGLKEAALAAARAAQAAGSTNILQFLTSRFQSAAMAKVSASALEARQMGYLQPSDKIVFNVHELLYVAQNEVRALASAGYRAPLPTLVPVAGRSGIATIKASLVNMRDGGFISTHDFLIASRIAEAVCGGDVEAGSLVSEDWLLALERKAFVDLLGTGKTQERIMGMLQTGKPVRN | 48 µM
